Experimental data reported in article PMC7156458, “Synthetic biology based construction of biological activity-related library of fungal decalin-containing diterpenoid pyrones” (Nature Communications, 2020).

Target: Aβ42 (Homo sapiens, UniProt P05067)
Test: Th-T (thioflavin-T) assay of Aβ42 aggregation
Format: biochemical
Conditions: for Th-T fluorescence of Aβ42 (sheet Fig. 7a), mean of three wells: head suffix _50 (concentration 50); for Th-T assay plate reading, mean of three wells (Supplementary Fig. 47): source data, Ab alone and No Ab as controls; for Th-T fluorescence, mean of three wells: Supplementary Fig. 47 source data

Aβ42, sequence (P05067 672-713): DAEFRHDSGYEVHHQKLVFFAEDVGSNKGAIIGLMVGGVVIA

## C=C1CCC2C(C)(CCC=C(C)C)C(O)CCC2(C)C1Cc1c(OC)oc(CO)c(C)c1=O (stereo not drawn) [Compound 12]
Reading M73
  Th-T fluorescence of Aβ42 (sheet Fig. 7a), mean of three wells: 1.414
Reading M74
  Th-T fluorescence of Aβ42 (sheet Fig. 7a), mean of three wells: 1.457
Reading M75
  Th-T fluorescence of Aβ42 (sheet Fig. 7a), mean of three wells: 1.421
Reading M76
  Th-T fluorescence of Aβ42 (sheet Fig. 7a), mean of three wells: 1.415
Reading M77
  Th-T fluorescence of Aβ42 (sheet Fig. 7a), mean of three wells: 1.436
Reading M78
  Th-T fluorescence of Aβ42 (sheet Fig. 7a), mean of three wells: 1.437
Reading M79
  Th-T fluorescence of Aβ42 (sheet Fig. 7a), mean of three wells: 1.425
Reading M80
  Th-T fluorescence of Aβ42 (sheet Fig. 7a), mean of three wells: 1.423
Reading M81
  Th-T fluorescence of Aβ42 (sheet Fig. 7a), mean of three wells: 1.42
Reading M82
  Th-T fluorescence of Aβ42 (sheet Fig. 7a), mean of three wells: 1.419
Reading M83
  Th-T fluorescence of Aβ42 (sheet Fig. 7a), mean of three wells: 1.439
Reading M84
  Th-T fluorescence of Aβ42 (sheet Fig. 7a), mean of three wells: 1.415
Measurement M1
  Th-T assay plate reading, mean of three wells (Supplementary Fig. 47): 0.2937
Measurement M2
  Th-T assay plate reading, mean of three wells (Supplementary Fig. 47): 0.2498
Measurement M3
  Th-T assay plate reading, mean of three wells (Supplementary Fig. 47): 0.2612
Measurement M4
  Th-T assay plate reading, mean of three wells (Supplementary Fig. 47): 0.2666
Measurement M5
  Th-T assay plate reading, mean of three wells (Supplementary Fig. 47): 0.2891
Measurement M6
  Th-T assay plate reading, mean of three wells (Supplementary Fig. 47): 0.324
Measurement M7
  Th-T assay plate reading, mean of three wells (Supplementary Fig. 47): 0.6238
Measurement M8
  Th-T assay plate reading, mean of three wells (Supplementary Fig. 47): 1.342
Measurement M9
  Th-T assay plate reading, mean of three wells (Supplementary Fig. 47): 1.95
Measurement M10
  Th-T assay plate reading, mean of three wells (Supplementary Fig. 47): 2.214
Measurement M11
  Th-T assay plate reading, mean of three wells (Supplementary Fig. 47): 2.313
Measurement M12
  Th-T assay plate reading, mean of three wells (Supplementary Fig. 47): 2.311
Measurement M13
  Th-T assay plate reading, mean of three wells (Supplementary Fig. 47): 2.302
Measurement M14
  Th-T assay plate reading, mean of three wells (Supplementary Fig. 47): 2.328
Measurement M15
  Th-T assay plate reading, mean of three wells (Supplementary Fig. 47): 2.358
Measurement M16
  Th-T assay plate reading, mean of three wells (Supplementary Fig. 47): 2.3929
Reading M107, compound at 10 (head suffix _10)
  Th-T fluorescence, mean of three wells (Fig. 7a): 2.747
Reading M107, compound at 20 (head suffix _20)
  Th-T fluorescence, mean of three wells (Fig. 7a): 2.1149
Reading M107, compound at 50 (head suffix _50)
  Th-T fluorescence, mean of three wells (Fig. 7a): 1.42
Reading M108, compound at 10 (head suffix _10)
  Th-T fluorescence, mean of three wells (Fig. 7a): 2.748
Reading M108, compound at 20 (head suffix _20)
  Th-T fluorescence, mean of three wells (Fig. 7a): 2.099
Reading M108, compound at 50 (head suffix _50)
  Th-T fluorescence, mean of three wells (Fig. 7a): 1.438
Reading M109, compound at 10 (head suffix _10)
  Th-T fluorescence, mean of three wells (Fig. 7a): 2.719
Reading M109, compound at 20 (head suffix _20)
  Th-T fluorescence, mean of three wells (Fig. 7a): 2.112
Reading M109, compound at 50 (head suffix _50)
  Th-T fluorescence, mean of three wells (Fig. 7a): 1.43
Reading M110, compound at 10 (head suffix _10)
  Th-T fluorescence, mean of three wells (Fig. 7a): 2.701
Reading M110, compound at 20 (head suffix _20)
  Th-T fluorescence, mean of three wells (Fig. 7a): 2.0943
Reading M110, compound at 50 (head suffix _50)
  Th-T fluorescence, mean of three wells (Fig. 7a): 1.437
Reading M111, compound at 10 (head suffix _10)
  Th-T fluorescence, mean of three wells (Fig. 7a): 2.678
Reading M111, compound at 20 (head suffix _20)
  Th-T fluorescence, mean of three wells (Fig. 7a): 2.0886
Reading M111, compound at 50 (head suffix _50)
  Th-T fluorescence, mean of three wells (Fig. 7a): 1.44
Reading M112, compound at 10 (head suffix _10)
  Th-T fluorescence, mean of three wells (Fig. 7a): 2.674
Reading M112, compound at 20 (head suffix _20)
  Th-T fluorescence, mean of three wells (Fig. 7a): 2.104
Reading M112, compound at 50 (head suffix _50)
  Th-T fluorescence, mean of three wells (Fig. 7a): 1.449
Reading M113, compound at 10 (head suffix _10)
  Th-T fluorescence, mean of three wells (Fig. 7a): 2.652
Reading M113, compound at 20 (head suffix _20)
  Th-T fluorescence, mean of three wells (Fig. 7a): 2.1068
Reading M113, compound at 50 (head suffix _50)
  Th-T fluorescence, mean of three wells (Fig. 7a): 1.457
Reading M114, compound at 10 (head suffix _10)
  Th-T fluorescence, mean of three wells (Fig. 7a): 2.644
Reading M114, compound at 20 (head suffix _20)
  Th-T fluorescence, mean of three wells (Fig. 7a): 2.09
Reading M114, compound at 50 (head suffix _50)
  Th-T fluorescence, mean of three wells (Fig. 7a): 1.449
Reading M115, compound at 10 (head suffix _10)
  Th-T fluorescence, mean of three wells (Fig. 7a): 2.617
Reading M115, compound at 20 (head suffix _20)
  Th-T fluorescence, mean of three wells (Fig. 7a): 2.12
Reading M115, compound at 50 (head suffix _50)
  Th-T fluorescence, mean of three wells (Fig. 7a): 1.466
Reading M116, compound at 10 (head suffix _10)
  Th-T fluorescence, mean of three wells (Fig. 7a): 2.617
Reading M116, compound at 20 (head suffix _20)
  Th-T fluorescence, mean of three wells (Fig. 7a): 2.1099
Reading M116, compound at 50 (head suffix _50)
  Th-T fluorescence, mean of three wells (Fig. 7a): 1.496
Reading M117, compound at 10 (head suffix _10)
  Th-T fluorescence, mean of three wells (Fig. 7a): 2.5929
Reading M117, compound at 20 (head suffix _20)
  Th-T fluorescence, mean of three wells (Fig. 7a): 2.13
Reading M117, compound at 50 (head suffix _50)
  Th-T fluorescence, mean of three wells (Fig. 7a): 1.473
Reading M118, compound at 10 (head suffix _10)
  Th-T fluorescence, mean of three wells (Fig. 7a): 2.576
Reading M118, compound at 20 (head suffix _20)
  Th-T fluorescence, mean of three wells (Fig. 7a): 2.113
Reading M118, compound at 50 (head suffix _50)
  Th-T fluorescence, mean of three wells (Fig. 7a): 1.488
Reading M119, compound at 10 (head suffix _10)
  Th-T fluorescence, mean of three wells (Fig. 7a): 2.572
Reading M119, compound at 20 (head suffix _20)
  Th-T fluorescence, mean of three wells (Fig. 7a): 2.161
Reading M119, compound at 50 (head suffix _50)
  Th-T fluorescence, mean of three wells (Fig. 7a): 1.496
Reading M120, compound at 10 (head suffix _10)
  Th-T fluorescence, mean of three wells (Fig. 7a): 2.541
Reading M120, compound at 20 (head suffix _20)
  Th-T fluorescence, mean of three wells (Fig. 7a): 2.1524
Reading M120, compound at 50 (head suffix _50)
  Th-T fluorescence, mean of three wells (Fig. 7a): 1.517
Reading M121, compound at 10 (head suffix _10)
  Th-T fluorescence, mean of three wells (Fig. 7a): 2.53
Reading M121, compound at 20 (head suffix _20)
  Th-T fluorescence, mean of three wells (Fig. 7a): 2.137
Reading M121, compound at 50 (head suffix _50)
  Th-T fluorescence, mean of three wells (Fig. 7a): 1.531
Reading M122, compound at 10 (head suffix _10)
  Th-T fluorescence, mean of three wells (Fig. 7a): 2.517
Reading M122, compound at 20 (head suffix _20)
  Th-T fluorescence, mean of three wells (Fig. 7a): 2.124
Reading M122, compound at 50 (head suffix _50)
  Th-T fluorescence, mean of three wells (Fig. 7a): 1.501
Reading M123, compound at 10 (head suffix _10)
  Th-T fluorescence, mean of three wells (Fig. 7a): 2.493
Reading M123, compound at 20 (head suffix _20)
  Th-T fluorescence, mean of three wells (Fig. 7a): 2.112
Reading M123, compound at 50 (head suffix _50)
  Th-T fluorescence, mean of three wells (Fig. 7a): 1.514
Reading M124, compound at 10 (head suffix _10)
  Th-T fluorescence, mean of three wells (Fig. 7a): 2.48
Reading M124, compound at 20 (head suffix _20)
  Th-T fluorescence, mean of three wells (Fig. 7a): 2.17
Reading M124, compound at 50 (head suffix _50)
  Th-T fluorescence, mean of three wells (Fig. 7a): 1.559
Reading M125, compound at 10 (head suffix _10)
  Th-T fluorescence, mean of three wells (Fig. 7a): 2.466
Reading M125, compound at 20 (head suffix _20)
  Th-T fluorescence, mean of three wells (Fig. 7a): 2.169
Reading M125, compound at 50 (head suffix _50)
  Th-T fluorescence, mean of three wells (Fig. 7a): 1.553
Reading M126, compound at 10 (head suffix _10)
  Th-T fluorescence, mean of three wells (Fig. 7a): 2.458
Reading M126, compound at 20 (head suffix _20)
  Th-T fluorescence, mean of three wells (Fig. 7a): 2.184
Reading M126, compound at 50 (head suffix _50)
  Th-T fluorescence, mean of three wells (Fig. 7a): 1.559
Reading M127, compound at 10 (head suffix _10)
  Th-T fluorescence, mean of three wells (Fig. 7a): 2.439
Reading M127, compound at 20 (head suffix _20)
  Th-T fluorescence, mean of three wells (Fig. 7a): 2.22
Reading M127, compound at 50 (head suffix _50)
  Th-T fluorescence, mean of three wells (Fig. 7a): 1.57
Reading M128, compound at 10 (head suffix _10)
  Th-T fluorescence, mean of three wells (Fig. 7a): 2.428
Reading M128, compound at 20 (head suffix _20)
  Th-T fluorescence, mean of three wells (Fig. 7a): 2.151
Reading M128, compound at 50 (head suffix _50)
  Th-T fluorescence, mean of three wells (Fig. 7a): 1.57
time-course reading M97
  Th-T fluorescence, mean of three wells: 2.083
time-course reading M98
  Th-T fluorescence, mean of three wells: 2.088
time-course reading M99
  Th-T fluorescence, mean of three wells: 2.073
time-course reading M100
  Th-T fluorescence, mean of three wells: 2.078
time-course reading M101
  Th-T fluorescence, mean of three wells: 2.074
time-course reading M102
  Th-T fluorescence, mean of three wells: 2.082
time-course reading M103
  Th-T fluorescence, mean of three wells: 2.066
time-course reading M104
  Th-T fluorescence, mean of three wells: 2.071
time-course reading M105
  Th-T fluorescence, mean of three wells: 2.058
time-course reading M106
  Th-T fluorescence, mean of three wells: 2.067
time-course reading M107
  Th-T fluorescence, mean of three wells: 2.067
time-course reading M108
  Th-T fluorescence, mean of three wells: 2.064
time-course reading M109
  Th-T fluorescence, mean of three wells: 2.047
time-course reading M110
  Th-T fluorescence, mean of three wells: 2.071
time-course reading M111
  Th-T fluorescence, mean of three wells: 2.087
time-course reading M112
  Th-T fluorescence, mean of three wells: 2.064
time-course reading M113
  Th-T fluorescence, mean of three wells: 2.068
time-course reading M114
  Th-T fluorescence, mean of three wells: 2.053
time-course reading M115
  Th-T fluorescence, mean of three wells: 2.069
time-course reading M116
  Th-T fluorescence, mean of three wells: 2.057
